Legend:
[1] = tested on: BT-474 human breast cancer cells; experiment: SRB cell proliferation assay in vitro; assay type: cell-based
Text: (§1) Sulforhodamine B (SRB)-based colorimetric method was used in this Example to evaluate the anti-proliferative effect of the drugs. SRB is a pink anionic dye which is easily soluble in water and can specifically bind to basic amino acids making up proteins in cells under an acidic condition. It provides an absorption peak at 510 nm, and the absorbance is linearly and positively correlated with the amount of cells. In this regard, the method can be used in a quantitative detection of cell number.
(§2) BT-474, SK-BR-3 and NCI-N87 cells in RPMI 1640 medium containing 10% fetal bovine serum, SKOV-3, Du-145, Panc-1, MCF-7 and MDA-MB-231 cells in DMEM containing 10% fetal bovine serum, and MDA-MB-468 cells in DMEM/F12 containing 10% fetal bovine serum were incubated to logarithmic growth phase in a 5% CO2 incubator at 37° C. The above cells in the logarithmic growth phase were inoculated into 96-well plates at a density of 2×10^3 to 9×10^3 cells per well, 100 μL per well, cultured for 24 hours and then different concentrations of drugs were added thereto for 5 days. Specifically, each drug was prepared into nine concentrations by diluting in 3, 4 or 5-fold, each concentration was set in duplicate wells, and corresponding concentration of vehicle control wells and medium control wells without cells were set too. At the end of drug action, culture solutions were decanted, and 100 μl of a pre-cooled trichloroacetic acid solution (30%, w/v) at 4° C. was added to each well and the cells were fixed at 4° C. for 1 hour. Subsequently, the cells were washed with deionized water for 5 times, and dried at room temperature, and then 100 μL of 0.4% (w/v) SRB dye (Sigma, prepared with 1% glacial acetic acid) was added to each well. After being incubated and stained at room temperature for 30 minutes, the cells were washed with 1% glacial acetic acid for 4 times to remove unbound dyes, and then dried at room temperature. Afterwards, 100 μL of 10 mM Tris solution was added per well.
as §1, with “SRB is a pink anionic dye which is easily soluble in water and can specifically bind to basic amino acids making up proteins in cells under an acidic condition.” left out
(§3) The above cells in the logarithmic growth phase were inoculated into 96-well plates at a density of 2×10^3 to 9×10^3 cells per well, 100 μL per well, cultured for 24 hours and then different concentrations of drugs were added thereto for 5 days. […] At the end of drug action, culture solutions were decanted, and 100 μl of a pre-cooled trichloroacetic acid solution (30%, w/v) at 4° C. was added to each well and the cells were fixed at 4° C. for 1 hour.

[2] = tested on: NCI-N87 human gastric cancer cells; experiment: SRB cell proliferation assay in vitro; assay type: cell-based
Text: as §1, §2
as §1, with “SRB is a pink anionic dye which is easily soluble in water and can specifically bind to basic amino acids making up proteins in cells under an acidic condition.” left out
as §3

[3] = tested on: SK-BR-3 human breast cancer cells; experiment: SRB cell proliferation assay in vitro; assay type: cell-based; details: SK-BR-3, Her2 highly expressing, 5 days, FIG. 4
Text: as §1
BT-474, SK-BR-3 and NCI-N87 cells in RPMI 1640 medium containing 10% fetal bovine serum, SKOV-3, Du-145, Panc-1, MCF-7 and MDA-MB-231 cells in DMEM containing 10% fetal bovine serum, and MDA-MB-468 cells in DMEM/F12 containing 10% fetal bovine serum were incubated to logarithmic growth phase in a 5% CO2 incubator at 37° C. The above cells in the logarithmic growth phase were inoculated into 96-well plates at a density of 2×10^3 to 9×10^3 cells per well, 100 μL per well, cultured for 24 hours and then different concentrations of drugs were added thereto for 5 days. Specifically, each drug was prepared into nine concentrations by diluting in 3, 4 or 5-fold, each concentration was set in duplicate wells, and corresponding concentration of vehicle control wells and medium control wells without cells were set too. […]

[4] = tested on: human gastric cancer NCI-N87 subcutaneous xenografts; experiment: In vivo anti-tumor efficacy assay (FIG. 10), IV once a week, 2 times in total; set-up: species or system BALB/cA-nude mice; details: 1 mg/kg
Method: (§4) 6-7 weeks BALB/cA-nude mice (♀) were purchased from Shanghai Lingchang Biotechnology Co., Ltd. Production license number: SCXK (Shanghai) 2013-0018; animal certificate number: 2013001815683; and feeding environment: SPF level.
Those nude mice were subcutaneously inoculated with human gastric cancer NCI-N87 cells, and then randomly divided into groups (D0) when tumors grew to 100-250 mm^3. Tumor volume was measured 2-3 times a week, the mice were weighed, and corresponding data were recorded. The tumor volume (V) was calculated as: V=½×a×b^2; in which a and b represent length and width respectively. T/C (%)=(T−T0)/(C−C0)×100, in which T and C represent the tumor volumes at the end of the experiment; T0 and C0 represent the tumor volumes at the beginning of the experiment.

[5] = tested on: human gastric cancer NCI-N87 subcutaneous xenografts; experiment: In vivo anti-tumor efficacy assay (FIG. 24), IV on D 0; set-up: species or system BALB/cA-nude mice; details: 1.0 mg/kg
Method: as §4
Those nude mice were subcutaneously inoculated with 6×10^6 human gastric cancer NCI-N87 cells, and after the tumors grew to 100-250 mm^3, the mice were divided into groups (D0) according to tumor volumes. The mice were injected intravenously (IV), each with an administration volume 10 mL/kg; mice in vehicle control group was administered with the same volume of “vehicle” (physiological saline containing 0.1% BSA). Tumor volume was measured 2 times a week, the mice were weighed, and corresponding data were recorded.
The purpose of this experiment was to investigate the effect of the drugs on tumor growth using specific indicators T/C % or tumor growth inhibition value (TGI) (%).
Tumor diameters were measured twice a week with a vernier caliper. The tumor volume (V) was calculated as: V=½×a×b^2; in which a and b represent length and width respectively. T/C(%)=(T−T0)/(C−C0)×100, in which T and C represent the tumor volumes at the end of the experiment; T0 and C0 represent the tumor volumes at the beginning of the experiment. […]

[6] = tested on: 18 human tumor cell lines; details: cited from earlier work

P-mcVC-MMAE: comparison Pertuzumab conjugate; traditional mcVC-PAB conjugate with MMAE
inhibition of tumor cell proliferation ([1]; BT-474, Her2 highly expressing, 5 days, FIG. 5): significant inhibition of tumor cell proliferation | inhibition of tumor cell proliferation ([2]; NCI-N87, Her2 highly expressing, 5 days, FIG. 6, FIG. 9-1): significant inhibition of tumor cell proliferation | inhibition of tumor cell proliferation [3]: significant inhibition of tumor cell proliferation | mice with tumors partially regressed [4]: 2/6 | tumor inhibition rate [4]: 94% | % T/C D 23 [5]: 17% | % TGI D 23 [5]: 83% | Mean tumor volume (mm3) D 23 [5]: 194.6 mm3 | Partial regression ([5]; number of mice, 6 per group): 3 | complete regression ([5]; number of mice, 6 per group): 0

Pertuzumab: HER2 antibody, naked antibody
IC50 ([1]; BT-474, 120 h): >10 µg/mL | IC50 ([2]; NCI-N87, 120 h): >10 µg/mL

Taltobulin
IC50 [6]: 2.5 nM

From patent publication US10987430B2, “Di-substituted maleic amide linker for antibody drug conjugating and preparation method and use thereof” (Mabwell (shanghai) Bioscience Co., Ltd., priority 2016, dated 2021)
